Results from US8173682B2, “Substituted pyridones as inhibitors of poly(ADP-ribose) polymerase (PARP)” (Aventis Pharmaceuticals Inc., priority 2004, dated 2012).
Where a name gives a salt, the structure may show the parent alone.

Target: T1, recombinant human PARP (PARP1) (Homo sapiens, UniProt P09874)
T1 construct: Full length human PARP (PARP1) is assembled from PCR fragments; His6 tag with TEV site, from the pFastBac-HTb vector (own knowledge of the vector); made in house; host or cells: insect cells, baculovirus (Bac-to-Bac, Gibco-BRL)
T1 sequence (P09874 whole entry, the tested form may be a part): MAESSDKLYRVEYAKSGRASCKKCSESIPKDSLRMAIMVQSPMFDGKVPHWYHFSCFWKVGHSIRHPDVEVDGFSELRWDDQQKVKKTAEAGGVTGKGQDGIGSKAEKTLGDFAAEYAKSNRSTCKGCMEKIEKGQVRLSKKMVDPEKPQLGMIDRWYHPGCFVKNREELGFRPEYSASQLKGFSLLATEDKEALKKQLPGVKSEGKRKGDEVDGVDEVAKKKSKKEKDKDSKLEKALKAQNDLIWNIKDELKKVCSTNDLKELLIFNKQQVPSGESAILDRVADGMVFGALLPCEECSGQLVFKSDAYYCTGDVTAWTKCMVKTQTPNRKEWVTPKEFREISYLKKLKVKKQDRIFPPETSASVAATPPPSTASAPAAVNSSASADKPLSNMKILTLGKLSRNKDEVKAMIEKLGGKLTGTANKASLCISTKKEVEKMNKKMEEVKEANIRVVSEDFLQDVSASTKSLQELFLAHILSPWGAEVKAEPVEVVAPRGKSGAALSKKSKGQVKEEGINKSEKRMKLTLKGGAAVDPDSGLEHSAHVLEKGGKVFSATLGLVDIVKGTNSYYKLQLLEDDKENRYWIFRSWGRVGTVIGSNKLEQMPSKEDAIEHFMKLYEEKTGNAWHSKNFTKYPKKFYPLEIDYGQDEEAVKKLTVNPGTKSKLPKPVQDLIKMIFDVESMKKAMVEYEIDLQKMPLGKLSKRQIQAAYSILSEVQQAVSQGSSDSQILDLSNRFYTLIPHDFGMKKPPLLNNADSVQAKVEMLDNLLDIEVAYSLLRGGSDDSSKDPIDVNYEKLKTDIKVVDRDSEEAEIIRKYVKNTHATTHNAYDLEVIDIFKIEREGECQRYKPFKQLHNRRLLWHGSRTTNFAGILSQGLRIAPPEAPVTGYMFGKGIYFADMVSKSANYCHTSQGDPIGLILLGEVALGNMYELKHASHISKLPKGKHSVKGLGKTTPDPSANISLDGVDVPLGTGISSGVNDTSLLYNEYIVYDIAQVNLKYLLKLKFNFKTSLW
Assay: PARP enzyme assay, Method A (radioactivity or 'ELISA' enzyme assay with partially purified enzyme)
Assay type: biochemical
Settings: recombinant human PARP preparation, radioactive or ELISA enzyme assay
Outline: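 Partially purified recombinant full-length His-tagged human PARP1, baculovirus-expressed. Radioactive format: 100 μg/mL sonicated DNA, 100 μg/mL histones, 100 mM Tris pH 8.0, 10 mM MgCl2, 200 μM labeled NAD, 10 min 37 °C or 60 min RT, TCA-precipitated counts. ELISA format: 250 μM NAD plus biotin-NAD on histone plates, TMB A450.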

SMILES | IC50
CCc1cc(-c2ccc(CN3CCC(N4CCCCC4)CC3)s2)c(C)[nH]c1=O [Example 129, 5-(5-[1,4′]Bipiperidinyl-1′-ylmethyl-thiophen-2-yl)-3-ethyl-6-methyl-1H-pyridin-2-one dihydrochloride] | 1.8 µM
CCc1cc(-c2ccc(CNc3cc(C(=O)OC)n(C)c3)s2)c(C)[nH]c1=O [Example 130, 4-{[5-(5-Ethyl-2-methyl-6-oxo-1,6-dihydro-pyridin-3-yl)-thiophen-2-ylmethyl]-amino}-1-methyl-1H-pyrrole-2-carboxylic acid methyl ester dihydrochloride] | 1.2 µM
CCc1cc(-c2ccc(CNC3CCN(CC4CCCCC4)CC3)s2)c(C)[nH]c1=O [Example 132, 5-{5-[(1-Cyclohexylmethyl-piperidin-4-ylamino)-methyl]thiophen-2-yl}-3-ethyl-6-methyl-1H-pyridin-2-one dihydrochloride] | 1.3 µM
CCc1cc(-c2ccc(CN(C)C3CCN(C)C3)s2)c(C)[nH]c1=O (stereo not drawn) [Example 133, 5-{5-[Methyl(1-methylpyrrolidin-3-yl)amino-methyl]thiophen-2-yl}-3-ethyl-6-methyl-1H-pyridin-2-one dihydrochloride] | 2.8 µM
CCc1cc(-c2ccc(CNC3CCc4ccccc4C3)s2)c(C)[nH]c1=O (stereo not drawn) [Example 134, 3-Ethyl-6-methyl-5-{5-[(1,2,3,4-tetrahydro-naphthalen-2-ylamino)-methyl]thiophen-2-yl}-1H-pyridin-2-one hydrochloride] | 0.8 µM
CCc1cc(-c2ccc(CNC3CCN(c4nccc(C(F)(F)F)n4)CC3)s2)c(C)[nH]c1=O [Example 139, dihydrochloride] | 2.6 µM
CCc1cc(-c2ccc(CNC3CC3)s2)c(C)[nH]c1=O [Example 142, 5-(5-Cyclopropylaminomethyl-thiophen-2-yl)-3-ethyl-6-methyl-1H-pyridin-2-one hydrochloride] | 2.1 µM
CCc1cc(-c2ccc(CNc3cc(F)cc(F)c3)s2)c(C)[nH]c1=O [Example 145, 5-{5-[(3,5-Difluoro-phenylamino)-methyl]thiophen-2-yl}-3-ethyl-6-methyl-1H-pyridin-2-one hydrochloride] | 4 µM
CCc1cc(-c2ccc(CN3CCC4(CC3)OCCO4)s2)c(C)[nH]c1=O [Example 149, 5-[5-(1,4-Dioxa-8-aza-spiro[4,5]dec-8-ylmethy)-thiophen-2-yl)-3-ethyl-6-methyl-1H-pyridin-2-one hydrochloride] | 0.79 µM
CCc1cc(-c2ccc(CN3CCC(=O)CC3)s2)c(C)[nH]c1=O [Example 150, 3-Ethyl-6-methyl-5-[5-(4-oxo-piperidin-1-ylmethy)-thiophen-2-yl]-1H-pyridin-2-one hydrochloride] | 1.3 µM
CCc1cc(-c2ccc(CNC3CCN(Cc4ccccc4)CC3)s2)c(C)[nH]c1=O [Example 151, 5-{5-[(1-Benzyl-piperidin-4-ylamino)-methyl]thiophen-2-yl}-3-ethyl-6-methyl-1H-pyridin-2-one dihydrochloride] | 0.92 µM
CCc1cc(-c2ccc(CNCc3ccncc3)s2)c(C)[nH]c1=O [Example 152, 3-Ethyl-6-methyl-5-{5-{[(pyridin-4-ylmethyl)-amino]-methyl-thiophen-2-yl)-1H-pyridin-2-one dihydrochloride] | 0.83 µM
CCc1cc(-c2ccc(CNCCCn3ccnc3)s2)c(C)[nH]c1=O [Example 153, 3-Ethyl-6-methyl-5-{5-[(3-imidazol-1-yl-propylamino)-methyl]thiophen-2-yl)-1H-pyridin-2-one dihydrochloride] | 0.67 µM
CCc1cc(-c2ccc(CNCCc3cnc[nH]3)s2)c(C)[nH]c1=O [Example 155, 3-Ethyl-5-(5-{[(2-(3H-imidazol-4-yl)ethylamino]methyl}thiophen-2-yl)-6-methyl-1H-pyridin-2-one dihydrochloride] | 0.71 µM

Continued, values first:

IC50 | SMILES
0.45 µM | CCc1cc(-c2ccc(CN[C@H]3CC[C@H](O)CC3)s2)c(C)[nH]c1=O [Example 125, 3-Ethyl-5-{5-[(4-hydroxycyclohexylamino)methyl]thiophen-2-yl]-6-methyl-1H-pyridin-2-one hydrochloride]
0.67 µM | CCc1cc(-c2ccc(CN3CCC(O)CC3)s2)c(C)[nH]c1=O [Example 127, 3-Ethyl-5-[5-(4-hydroxy-piperidin-1-ylmethyl)-thiophen-2-yl]-6-methyl-1H-pyridin-2-one hydrochloride]
0.46 µM | CCc1cc(-c2ccc(CNCCO)s2)c(C)[nH]c1=O [Example 128, 3-Ethyl-5-{5-[(2-hydroxy-ethylamino)-methyl]thiophen-2-yl}-6-methyl-1H-pyridin-2-one hydrochloride]
0.47 µM | CCc1cc(-c2ccc(CN3CCCC(CO)C3)s2)c(C)[nH]c1=O (stereo not drawn) [Example 131, 3-Ethyl-5-[5-(3-hydroxymethyl-piperidin-1-ylmethyl)-thiophen-2-yl]-6-methyl-1H-pyridin-2-one hydrochloride]
0.52 µM | CCc1cc(-c2ccc(CNC3CCC3)s2)c(C)[nH]c1=O [Example 137, 5-(5-Cyclobutylaminomethyl-thiophen-2-yl)-3-ethyl-6-methyl-1H-pyridin-2-one hydrochloride]
0.63 µM | CCc1cc(-c2ccc(CNCCOC)s2)c(C)[nH]c1=O [Example 138, 3-Ethyl-5-{5-[(2-methoxyethylamino)-methyl]thiophen-2-yl}-6-methyl-1H-pyridin-2-one hydrochloride]
0.64 µM | CCc1cc(-c2ccc(CNCC3CCN(Cc4cc(F)cc(F)c4)CC3)s2)c(C)[nH]c1=O [Example 140, 5-(5-{[1-(3,5-Difluoro-benzyl)-)-piperidin-4-ylmethyl]-amino}methyl-thiophen-2-yl)-3-ethyl-6-methyl-1H-pyridin-2-one hydrochloride]
0.54 µM | CCc1cc(-c2ccc(CNCCc3ccccn3)s2)c(C)[nH]c1=O [Example 141, 3-Ethyl-6-methyl-5-{5-[(2-pyridin-2-ylethylamino)methyl]thiophen-2-yl}-1H-pyridin-2-one dihydrochloride]
0.62 µM | CCc1cc(-c2ccc(CNCCC3=CCCCC3)s2)c(C)[nH]c1=O [Example 144, 5-{5-[(2-Cyclohex-1-enyl-ethylamino)-methyl]thiophen-2-yl}-3-ethyl-6-methyl-1H-pyridin-2-one hydrochloride]
0.49 µM | CCc1cc(-c2ccc(CNC(C)C(C)C)s2)c(C)[nH]c1=O (stereo not drawn) [Example 147, 5-{5-[(3-methylbut-2-ylamino)methyl]thiophen-2-yl}-3-ethyl-6-methyl-1H-pyridin-2-one hydrochloride]
0.53 µM | CCc1cc(-c2ccc(CNCCN3CCCC3)s2)c(C)[nH]c1=O [Example 154, 3-Ethyl-6-methyl-5-{5-{[(2-pyrrolidin-1-ylethylamino)-methyl]thiophen-2-yl)-1H-pyridin-2-one dihydrochloride]
0.44 µM | CCc1cc(-c2ccc(CNC3Cc4ccccc4C3)s2)c(C)[nH]c1=O [Example 156, 3-Ethyl-5-[5-(indan-2-ylaminomethyl)-thiophen-2-yl]-6-methyl-1H-pyridin-2-one hydrochloride]
0.6 µM | CCc1cc(-c2ccc(CNCc3ccccc3)s2)c(C)[nH]c1=O [Example 157, 5-[5-(Benzylamino-methyl)-thiophen-2-yl]-3-ethyl-6-methyl-1H-pyridin-2-one hydrochloride]
